Columns and labels:
[1] = NCI one-dose screening, renal cancer A489; format: cell-based, human; settings: 10 μM
[2] = tested on: HOP-62; assay: NCI one-dose screening, non-small cell lung cancer HOP-62; format: cell-based, human; settings: 10 μM
[3] = tested on: NCl/ADR-RES; assay: NCI one-dose screening, breast cancer NCl/ADR-RES; format: cell-based, human; settings: 10 μM; listed under Ovarian cancer
[4] = tested on: SF-268; assay: NCI one-dose screening, CNS cancer SF-268; format: cell-based, human; settings: 10 μM
[5] = tested on: A549/ATCC; assay: NCI one-dose screening, non-small cell lung cancer A549/ATCC; format: cell-based, human; settings: 10 μM
[6] = tested on: OVCAR-5; assay: NCI one-dose screening, ovarian cancer OVCAR-5; format: cell-based, human; settings: 10 μM
[7] = tested on: M14; assay: NCI one-dose screening, melanoma M14; format: cell-based, human; settings: 10 μM
[8] = tested on: T-47D; assay: NCI one-dose screening, breast cancer T-47D; format: cell-based, human; settings: 10 μM
[9] = tested on: U251; assay: NCI one-dose screening, CNS cancer U251; format: cell-based, human; settings: 10 μM
[10] = tested on: LOX IMVI; assay: NCI one-dose screening, melanoma LOX IMVI; format: cell-based, human; settings: 10 μM
[11] = tested on: SN12C; assay: NCI one-dose screening, renal cancer SN12C; format: cell-based, human; settings: 10 μM
[12] = tested on: MOLT-4; assay: NCI one-dose screening, leukemia MOLT-4; format: cell-based, human; settings: 10 μM
[13] = tested on: COLO 205; assay: NCI one-dose screening, colon cancer COLO 205; format: cell-based, human; settings: 10 μM
[14] = tested on: K562cell line; assay: NCI one-dose screening, leukemia K562; format: cell-based, human; settings: 10 μM
[15] = tested on: SF-539; assay: NCI one-dose screening, CNS cancer SF-539; format: cell-based, human; settings: 10 μM
[16] = tested on: UACC-257; assay: NCI one-dose screening, melanoma UACC-257; format: cell-based, human; settings: 10 μM
[17] = tested on: DU145; assay: NCI one-dose screening, prostate cancer DU145; format: cell-based, human; settings: 10 μM
[18] = tested on: SNB-75; assay: NCI one-dose screening, CNS cancer SNB-75; format: cell-based, human; settings: 10 μM
[19] = tested on: HL-60, TB; assay: NCI one-dose screening, leukemia HL-60, TB; format: cell-based, human; settings: 10 μM
[20] = tested on: UO-31; assay: NCI one-dose screening, renal cancer UO-31; format: cell-based, human; settings: 10 μM
[21] = tested on: PRMI-8226 cell line; assay: NCI one-dose screening, leukemia PRMI-8226; format: cell-based, human; settings: 10 μM
[22] = tested on: SK-MEL-2; assay: NCI one-dose screening, melanoma SK-MEL-2; format: cell-based, human; settings: 10 μM
[23] = tested on: PC-3; assay: NCI one-dose screening, prostate cancer PC-3; format: cell-based, human; settings: 10 μM
[24] = tested on: HS 578-T; assay: NCI one-dose screening, breast cancer HS 578-T; format: cell-based, human; settings: 10 μM; Breast cancer
[25] = tested on: SK-OV-3; assay: NCI one-dose screening, ovarian cancer SK-OV-3; format: cell-based, human; settings: 10 μM
[26] = tested on: IGROV1; assay: NCI one-dose screening, ovarian cancer IGROV1; format: cell-based, human; settings: 10 μM
[27] = tested on: OVCAR-3; assay: NCI one-dose screening, ovarian cancer OVCAR-3; format: cell-based, human; settings: 10 μM
[28] = tested on: RXF, 393; assay: NCI one-dose screening, renal cancer RXF, 393; format: cell-based, human; settings: 10 μM
[29] = tested on: HOP-92; assay: NCI one-dose screening, non-small cell lung cancer HOP-92; format: cell-based, human; settings: 10 μM
[30] = tested on: TK-10; assay: NCI one-dose screening, renal cancer TK-10; format: cell-based, human; settings: 10 μM
[31] = tested on: HT29; assay: NCI one-dose screening, colon cancer HT29; format: cell-based, human; settings: 10 μM
[32] = tested on: HCT-15; assay: NCI one-dose screening, colon cancer HCT-15; format: cell-based, human; settings: 10 μM
[33] = tested on: HCC-2998; assay: NCI one-dose screening, colon cancer HCC-2998; format: cell-based, human; settings: 10 μM
[34] = tested on: NCI-H226; assay: NCI one-dose screening, non-small cell lung cancer NCI-H226; format: cell-based, human; settings: 10 μM
[35] = tested on: ACHN; assay: NCI one-dose screening, renal cancer ACHN; format: cell-based, human; settings: 10 μM
[36] = tested on: SNB-19; assay: NCI one-dose screening, CNS cancer SNB-19; format: cell-based, human; settings: 10 μM
[37] = tested on: NCI-H23; assay: NCI one-dose screening, non-small cell lung cancer NCI-H23; format: cell-based, human; settings: 10 μM
[38] = tested on: NCI-H460; assay: NCI one-dose screening, non-small cell lung cancer NCI-H460; format: cell-based, human; settings: 10 μM
[39] = tested on: BT-549; assay: NCI one-dose screening, breast cancer BT-549; format: cell-based, human; settings: 10 μM
[40] = tested on: UACC-62; assay: NCI one-dose screening, melanoma UACC-62; format: cell-based, human; settings: 10 μM
[41] = tested on: OVCAR-8; assay: NCI one-dose screening, ovarian cancer OVCAR-8; format: cell-based, human; settings: 10 μM
[42] = tested on: HCT-116; assay: NCI one-dose screening, colon cancer HCT-116; format: cell-based, human; settings: 10 μM
[43] = tested on: PC-3 prostate cancer cell line; assay: SRB assay cell viability, PC-3 prostate cancer cell line; format: cell-based, human; settings: Homo sapiens, PC-3 prostate cancer cell line, Table II prints no unit, μM printed, read-out: SRB assay: 50% inhibition of cancer cell proliferation of sample concentration (IC50) of PC-3 prostate cancer cell line
[44] = tested on: MCF7; assay: NCI one-dose screening, breast cancer MCF7; format: cell-based, human; settings: 10 μM
[45] = tested on: KM12; assay: NCI one-dose screening, colon cancer KM12; format: cell-based, human; settings: 10 μM
[46] = tested on: 786-O; assay: NCI one-dose screening, renal cancer 786-O; format: cell-based, human; settings: 10 μM
[47] = tested on: MALME-3M; assay: NCI one-dose screening, melanoma MALME-3M; format: cell-based, human; settings: 10 μM
[48] = tested on: human tumor cell lines; assay: NCI one-dose screening, Mean / Delta / Range of growth percent over all tested cell lines; format: cell-based; settings: 10 μM
[49] = tested on: MDA, -MB-435; assay: NCI one-dose screening, breast cancer MDA, -MB-435; format: cell-based, human; settings: 10 μM; listed under Melanoma
[50] = tested on: MDA-MB-231/ATCC; assay: NCI one-dose screening, breast cancer MDA-MB-231/ATCC; format: cell-based, human; settings: 10 μM
[51] = tested on: NCI-H522; assay: NCI one-dose screening, non-small cell lung cancer NCI-H522; format: cell-based, human; settings: 10 μM
[52] = tested on: SR; assay: NCI one-dose screening, leukemia SR; format: cell-based, human; settings: 10 μM
[53] = tested on: EKVX; assay: NCI one-dose screening, non-small cell lung cancer EKVX; format: cell-based, human; settings: 10 μM
[54] = tested on: MDA-MB-468; assay: NCI one-dose screening, breast cancer MDA-MB-468; format: cell-based, human; settings: 10 μM
[55] = tested on: SK-MEL-5; assay: NCI one-dose screening, melanoma SK-MEL-5; format: cell-based, human; settings: 10 μM
[56] = tested on: SK-MEL-28; assay: NCI one-dose screening, melanoma SK-MEL-28; format: cell-based, human; settings: 10 μM

With `COc1cccc(Sc2cc3c(c4nsnc24)C(=O)c2ccccc2C3=O)c1` [C46, 4-(3-methoxy-phenyl-thio)anthra[2,1-c] [1,2,5]thiadiazol-6,11-dione] the “Growth Percent A498” value [1] was 83.74%, the “Growth Percent HOP-62” value [2] was 61.81% and the “Growth Percent NCI/ADR-RES” value [3] was 92.67%. For the same compound, the “Growth Percent SF-268” value [4] was 89.75%, the “Growth Percent A549/ATCC” value [5] was 109.52% and the “Growth Percent OVCAR-5” value [6] was 122.58%. The “Growth Percent M14” value [7] was 94.23%, the “Growth Percent T-47D” value [8] was 69.09% and the “Growth Percent U251” value [9] was 100.67%. The “Growth Percent LOX IMVI” value [10] was 70.96%, the “Growth Percent SN12C” value [11] was 95.93% and the “Growth Percent MOLT-4” value [12] was 35.83%. The “Growth Percent COLO 205” value [13] was 109.57%, the “Growth Percent K562” value [14] was 38.52% and the “Growth Percent SF-539” value [15] was 107.05%. For the same compound, the “Growth Percent UACC-257” value [16] was 104/27, the “Growth Percent DU145” value [17] was 98.87% and the “Growth Percent SNB-75” value [18] was 81.80%. The “Growth Percent HL-60(TB)” value [19] was 84.53%, the “Growth Percent UO-31” value [20] was 75.49% and the “Growth Percent RPMI-8226” value [21] was 52.03%. The “Growth Percent SK-MEL-2” value [22] was 82.62%, the “Growth Percent PC-3” value [23] was 75.99% and the “Growth Percent HS 578T” value [24] was 93.84%. The “Growth Percent SK-OV-3” value [25] was 110.30%, the “Growth Percent IGROV1” value [26] was 99.91% and the “Growth Percent OVCAR-3” value [27] was 85.83%. For the same compound, the “Growth Percent RXF 393” value [28] was 124.15%, the “Growth Percent HOP-92” value [29] was 100.52% and the “Growth Percent TK-10” value [30] was 130.80%. For the same compound, the “Growth Percent HT29” value [31] was 105.25%, the “Growth Percent HCT-15” value [32] was 71.89% and the “Growth Percent HCC-2998” value [33] was 104.94%. For the same compound, the “Growth Percent NCI-H226” value [34] was 95.26%, the “Growth Percent ACHN” value [35] was 98.70% and the “Growth Percent SNB-19” value [36] was 105.92%. The “Growth Percent NCI-H23” value [37] was 76.42%, the “Growth Percent NCI-H460” value [38] was 100.27% and the “Growth Percent BT-549” value [39] was 94.91%. The “Growth Percent UACC-62” value [40] was 87.72%, the “Growth Percent OVCAR-8” value [41] was 97.32% and the “Growth Percent HCT-116” value [42] was 85.66%. The IC50 [43] was greater than 15 µM, the “Growth Percent MCF7” value [44] was 72.77% and the “Growth Percent KM12” value [45] was 97.06%. For the same compound, the “Growth Percent 786-0” value [46] was 102.97%, the “Growth Percent MALME-3M” value [47] was 113.06% and the “Growth Percent Delta” value ([48]; delta over all cell lines) was 55.47%. The “Growth Percent Mean” value ([48]; mean over all cell lines) was 91.30%, the “Growth Percent Range” value ([48]; range over all cell lines) was 94.97% and the “Growth Percent MDA-MB-435” value [49] was 72.50%. The “Growth Percent MDA-MB-231/ATCC” value [50] was 87.08%, the “Growth Percent NCI-H522” value [51] was 82.41% and the “Growth Percent SR” value [52] was 36.14%. For the same compound, the “Growth Percent EKVX” value [53] was 104.94%, the “Growth Percent MDA-MB-468” value [54] was 93.53% and the “Growth Percent SK-MEL-5” value [55] was 100.11%. For the same compound, the “Growth Percent SK-MEL-28” value [56] was 101.77%.
